The test system of the test is MDA-MB-231-AR tumors. Description: Affymetrix microarray of MDA-MB-231-AR tumors. The test is classed as in vivo, mice. Here is the method:
RNA was extracted from MDA-MB-231-AR tumors (n=5/group) treated with vehicle or compound of Formula VIII. RNA was pooled and Affymetrix microarray was performed to determine the change in expression of gene signature.
Microarray Analysis was performed on RNA from MDA-MB-231-AR and MCF-7-AR tumors in order to identify and compare changes in gene expression in ER-negative (MDA-MB-231-AR; triple negative) an ER-positive (MCF-7-AR; triple positive) breast cancer tumors treated with a compound of Formula VIII (30 mg/kg/day p.o. for 4 weeks). Affymetrix analysis of the xenografts was done on pooled samples of the xenografts. The analysis included ˜70,000 sequences with ˜30,000 genes and variations thereof represented, as well as microRNA's. RNA was isolated and expression of genes was evaluated using microarray (Affymetrix Human Gene ST 2.0 array). Expression of genes in compound of Formula VIII-treated samples was compared with the expression in vehicle-treated samples.

Molecules are shown by their SMILES.

In the case of `C[C@](O)(COc1ccc(C#N)cc1)C(=O)Nc1ccc(C#N)c(Cl)c1` [Formula VIII, (S)—N-(3-chloro-4-cyanophenyl)-3-(4-cyanophenoxy)-2-hydroxy-2-methylpropanamide], for the setting “Table 8”, the Aurora kinase expression result is reported as “Decreased”, the “BUB1 S/T kinase expression” value is listed as “Decreased”, the CENPE expression result is listed as “Decreased” and the EHMT2 expression result is “Decreased”. In addition, where the note is “Table 8”, the ERCC1 expression result is on record as “Decreased”, the IGFBP3 expression result is reported as “Decreased”, the ITGA2 expression result is “Decreased” and the NQO1 expression entry is reported as “Increased”. Under “Table 8”, the PARP1 expression result is recorded as “Decreased”, the POLD1 expression result is “Decreased”, the PTPRJ expression entry was “Increased” and the β-Adrenoceptor2 expression entry is recorded as “Decreased”. Moreover, for the setting “Table 10”, the FKBP51 induction entry is “∞”, the IRS2 induction is 4.40 Fold, the MUC1 induction turned out to be 9 Fold and the PTGS2 induction was found to be 14 Fold. Besides, the SNAI2/SLUG induction (Table 10) is on record as 2.10 Fold. In addition, the “genes Up” value (more than 2 fold vs vehicle) is recorded as 720.

(Values after US20220257552A1, “METHODS OF PRESCREENING AND TREATING BREAST CANCERS WITH SELECTIVE ANDROGEN RECEPTOR MODULATORS” (priority 2021, published 2022).)
